Literature values as cited in patent US20100160295A1, “TREATMENT OF RESTLESS LEG SYNDROME AND SLEEP DISORDERS” (SYNOSIA THERAPEUTICS, priority 2008, published 2010).

Test system: RLS patients
Conditions: RLS treatment, cited from earlier work

Compound | augmentation (worsening of symptoms following initiation of therapy), patients affected (estimated) | major side effects reported
N[C@@H](Cc1ccc(O)c(O)c1)C(=O)O [levidopa] | 50-85% | 
CCCN[C@H]1CCc2nc(N)sc2C1 [Pramipexole] |  | insomnia, dizziness, constipation, asthenia and hallucinations
